# Patent US20030040478A1, “Chemotherapy treatment” (priority 2002, published 2003)
# Key:
# [1] = tested on: irinotecan-treated CD1 mice, jejunum and colon crypts; assay: Crypt survival and cell number per hemi-crypt (histology) after irinotecan; type: in vivo, mouse; details: small and large intestine following irinotecan; FIGS. 3A-D
# Procedure: FIG. 3. Mean crypt survival (A and C) and mean cell number per hemi-crypt (B and D) from the midjejunum (A and B) and colon (C and D) of control and irinotecan-treated CD1 mice administered either saline (vehicle) or h[Gly2]-GLP-2 as a 3 day pretreatment regimen. Dotted lines represent line of best fit for data shown between 60 and 96 h. Five mice per treatment group were euthanized for analysis commencing immediately prior to the first of two injections of irinotecan (280 mg/kg per dose) and at 12 hr intervals up to 96 hrs. Crypt survival was measured along the entire bowel circumference, and the mean cell number per hemi-crypt determined in 50 consecutive intact crypts per animal. *=P<0.05, **=P<0.001, saline versus h[Gly2]-GLP-2 treated mice.
# Histological Analysis: Four- to six-micrometer histological cross sections from the intestine of each mouse were cut and stained with hematoxylin and eosin and micrometry was performed as described. Boushey, R. P. et al., Am. J. Physiol. 277: E937-E947, 1999. The number of cells per hemi-crypt column and the number of surviving crypts per circumference were measured in both the small and large intestine at 12 h intervals (n=5 mice per time point) following irinotecan administration as previously described. Wright, N. A. et al., Cell Tissue Kinet. 22: 425-50, 1989; Withers, H. R. et al., Int. J. Radiat. […] All slides were scored in a blinded fashion.
# irinotecan-treated mice [2] = assay: Leukocyte count after irinotecan; type: in vivo, mouse; details: mice following irinotecan treatment
# Procedure: (§1) FIG. 2. (A) Prevalence of positive bacterial aerobic cultures from mesenteric, splenic, and liver homogenates and whole blood. Groups of mice (n=20 mice for each treatment group) were pretreated for 3 days with either saline or h[Gly2]-GLP-2 as shown in FIG. 1A and euthanized 96 hrs after commencing irinotecan treatment (two injections of 280 mg/kg per dose). *=P<0.05, saline versus h[Gly2]-GLP-2 treated mice after irinotecan. […] (B) The leukocyte count in saline- and h[Gly2]-GLP-2 treated control and irinotecan-treated mice. + and *=p<0.05 for saline- and h[Gly2]-GLP-2-treated groups versus irinotecan-treated mice. #=P<0.05, irinotecan-treated mice pretreated with saline versus h[Gly2]-GLP-2.
# Leukocyte Count: Whole blood samples were collected in venipuncture tubes containing EDTA and analyzed using an automated whole blood sorter calibrated for mouse samples. Blood smears were performed on all samples to confirm the automated analysis.
# [3] = tested on: rodents with indomethacin-induced intestinal injury; details: Boushey et al. 1999, cited from earlier work
# irinotecan-treated mice [4] = details: mouse, in vivo
# Procedure: as §1
# Microbiology: At various time points following chemotherapy administration, aliquots of whole blood and tissue homogenates obtained using sterile technique were plated on blood agar plates and incubated at 37° C. for 48 hrs.
# [5] = mice following indomethacin-induced intestinal injury
# [6] = rodents with indomethacin-induced intestinal injury
compound,measurement,setting,value
"CCc1c2c(nc3ccc(OC(=O)N4CCC(N5CCCCC5)CC4)cc13)-c1cc3c(c(=O)n1C2)COC(=O)[C@]3(O)CC [irinotecan, 7-ethyl-10-[4-(1-piperidino)-1-piperidino] carbonyloxycamptothecin]",number of crypts and number of cells within each crypt,[1],significant reduction in both the number of crypts and in the number of cells within each crypt
same,leukocyte count after irinotecan treatment,irinotecan-treated mice [2],significant leukopenia
"GLP-2: 33 amino acid product of the glucagon gene, an intestinotrophic peptide secreted by enteroendocrine cells (HADGSFSDEMNTILDNLAARDFINWLIQTKITD; Glucagon-like peptide 2; UniProt P01275 146-178, looked up)",bacterial infection in the liver and spleen,[3]; [5],decreased bacterial infection in the liver and spleen
same,circulating bacteremia,[3]; [5],markedly reduced circulating bacteremia
same,epithelial damage,[3]; [6],reduces epithelial damage
same,survival,[3]; [6],improves survival
CC[C@H](C)[C@H](NC(=O)[C@H](Cc1ccccc1)NC(=O)[C@H](CC(=O)O)NC(=O)[C@H](CCCNC(=N)N)NC(=O)[C@H](C)NC(=O)[C@H](C)NC(=O)[C@H](CC(C)C)NC(=O)[C@H](CC(N)=O)NC(=O)[C@H](CC(=O)O)NC(=O)[C@H](CC(C)C)NC(=O)[C@@H](NC(=O)[C@@H](NC(=O)[C@H](CC(N)=O)NC(=O)[C@H](CCSC)NC(=O)[C@H](CCC(=O)O)NC(=O)[C@H](CC(=O)O)NC(=O)[C@H](CO)NC(=O)[C@H](Cc1ccccc1)NC(=O)[C@H](CO)NC(=O)CNC(=O)[C@H](CC(=O)O)NC(=O)CNC(=O)[C@@H](N)Cc1c[nH]cn1)[C@@H](C)O)[C@@H](C)CC)C(=O)N[C@@H](CC(N)=O)C(=O)N[C@@H](Cc1c[nH]c2ccccc12)C(=O)N[C@@H](CC(C)C)C(=O)N[C@H](C(=O)N[C@@H](CCC(N)=O)C(=O)N[C@H](C(=O)N[C@@H](CCCCN)C(=O)N[C@H](C(=O)N[C@H](C(=O)N[C@@H](CC(=O)O)C(=O)O)[C@@H](C)O)[C@@H](C)CC)[C@@H](C)O)[C@@H](C)CC [h[Gly2]-GLP-2],bacterial colonies in homogenates,irinotecan-treated mice [4],No bacterial colonies were detected
